According to PMC7582905, “Effect of Disulfide Cyclization of Ultrashort Cationic Lipopeptides on Antimicrobial Activity and Cytotoxicity” (International Journal of Molecular Sciences, 2020):
≈ marks a conversion by molar mass, not a printed value. Where two headings read alike, the source gives them in different places. Where a SMILES comes first, the peptide text is derived from it. Bridges are numbered along the chain shown (N, C = ends). The star is where a group is joined. Palmitoyl = CCCCCCCCCCCCCCCC(=O)*

Key:
[1] = test system: Escherichia coli ATCC 25922; format: cell-based
Protocol: (§1) The Staphylococcus aureus ATCC 25923, Staphylococcus epidermidis ATCC 14990, Escherichia coli ATCC 25922, Pseudomonas aeruginosa ATCC 9027, Candida albicans ATCC 10231, Candida glabrata ATCC 15126, Candida lipolytica PCM 2680-FY, and Candida tropicalis PCM 2709-FY strains were acquired from the Polish Collection of Microorganisms (PCM, Polish Academy of Sciences, Wrocław, Poland) and from the American Type Culture Collection (ATCC). All the strains were stored at −80 °C in Roti-Store cryo vials and before the tests were transferred into fresh Mueller–Hinton broth (MHB, Biocorp, Warsaw, Poland) for bacteria or RPMI-1640 (Sigma-Aldrich, Steinheim, Germany) for fungi and incubated for 24 h at 37 °C. Then, the cultures were seeded on Mueller–Hinton agar (BioMaxima, Lublin, Poland) or Sabouraud dextrose agar (SDA, BioMaxima, Lublin, Poland) plates, respectively, and incubated as just mentioned. These agar cultures were used for further microbiological assays. Cell densities for all assays were adjusted spectrophotometrically (Multiskan GO Microplate Spectrophotometer, Thermo Fisher Scientific, Vantaa, Finland) at 600 and 660 nm for bacteria and fungi, respectively.
(§2) The MICs were determined by broth microdilution method according to the Clinical and Laboratory Standard Institute guidelines For this purpose, initial inoculums of bacteria (5 × 10^5 CFU/mL) in MHB and yeasts (2 × 10^3 CFU/mL) in RPMI-1640 with 2% D-glucose were exposed to the ranging concentration of lipopeptides (0.5–256 μg/mL) and incubated at 37 °C for 18 h and 24 h, respectively. The experiments were conducted on 96-well microtiter polystyrene plates. The growth was assessed visually after incubation and the MIC was assumed as the lowest peptide concentration at which a noticeable growth of microorganisms was inhibited. All experiments were conducted in triplicate.

[2] = test system: Staphylococcus epidermidis ATCC 14990; format: cell-based
Protocol: as §1, §2

[3] = test system: Candida albicans ATCC 10231; format: cell-based
Protocol: as §1, §2

[4] = test system: Candida lipolytica PCM 2680-FY; format: cell-based; conditions: 24 h
Protocol: as §1, §2

[5] = test system: Pseudomonas aeruginosa ATCC 9027; format: cell-based
Protocol: as §1, §2

[6] = test system: Candida glabrata ATCC 15126; format: cell-based
Protocol: as §1, §2

[7] = test system: Candida tropicalis PCM 2709-FY; format: cell-based; conditions: 24 h
Protocol: as §1, §2

[8] = RP-HPLC determination of peptide hydrophobicity; format: physicochemical; conditions: 0.1% TFA; for reduced retention time t’R: RP-HPLC retention as measure of hydrophobicity, Waters X-Bridge Shield RP-18 3.0 × 100 mm, 3.5 μm, linear 20–65% acetonitrile in water over 30 min, 0.5 mL/min, 25.0 °C, UV 214 nm, 1 g/L, triplicate; for ∆tR: tR of cyclic analog − tR of parent lipopeptide, RP-HPLC, RP-18, 20–65% acetonitrile over 30 min
Protocol: The peptides were analyzed by RP-HPLC to determine relative hydrophobicity vs. retention time of each compound. In general, more hydrophobic lipopeptides will elute later than hydrophilic ones. Using this simple rule enables comparison of hydrophobicity by reduced retention times (t’R) and differences in retention time between the cyclic analog and its linear parent lipopeptide (Table 1). It can be deduced that the presence of cystine moiety has led to increased hydrophobicity. All cyclic lipopeptides are more hydrophobic than their linear counterparts but the effect of disulfide cyclization on retention is different in each pair. The highest increase in retention was noticed for the shortest lipopeptides L1 (C16-KKK-NH2) and C1 (C16-CKKKC-NH2). The differences between lipopeptides with one arginine residue indicate that its position is crucial for retention and therefore hydrophobicity. To learn how the arginine position affects hydrophobicity, the retention time of compound L2 (C16-KKKK-NH2) or C2 (C16-CKKKKC-NH2) was subtracted from that of the lipopeptides with one arginine residue, linear (L3, L4, L5, L6) or cyclic (C3, C4, C5, C6), respectively. In Figure 2 the effect of arginine position on retention time is related to unsubstituted lipopeptide.
To determine peptide hydrophobicity, a Waters Alliance e2695 system with a Waters 2998 PDA Detector (software-Empower 3, Waters, Milford, MA, USA) was used. All analyses were carried out on a Waters X-Bridge Shield RP-18 column (3.0 × 100 mm, 3.5 μm particle size, 130 Å pore size). The Shield Technology column with embedded polar groups was used to minimize interactions of unreacted silanol groups with basic lipopeptides. The peptides were dissolved in water (0.1% TFA, v/v) up to a concentration of 1 g/L. UV detection at 214 nm was used, and samples (10 μL) were eluted with a linear 20–65% acetonitrile gradient in deionized water over 30 min at 25.0 ± 0.1 °C. The mobile phase flow rate was 0.5 mL/min. Both eluents contained 0.1% (v/v) of TFA. Each peptide sample was analyzed in triplicate. Maximum standard deviation and coefficient of variation were 0.042 and 0.25%, respectively.

[9] = test system: Escherichia coli ATCC 25922; format: cell-based; remark: listed apart in the source
Protocol: as §1
(§3) The assay was performed to evaluate the effect of the lipopeptides in preventing biofilm formation. The preparation of inoculums was followed by a ca. 500-fold dilution of the 24 h cultures of microorganisms. Briefly, 50 μL of the compounds in the concentration range, diluted in appropriate medium, were prepared on 96-well polystyrene flat-bottom plates. Subsequently, the 50 μL of the bacterial/fungal inoculums were added to reach the same microbial density as that in the MBEC assay. After 24 h of incubation at 37 °C, the wells were rinsed three times with PBS and the fresh media with resazurin (4 g/L) were added. The MBICs were read after 1 h. All experiments were conducted in triplicate.

[10] = test system: Staphylococcus epidermidis ATCC 14990; format: cell-based; remark: listed apart in the source
Protocol: as §1, §3

[11] = test system: Candida albicans ATCC 10231; format: cell-based; remark: listed apart in the source
Protocol: as §1, §3

[12] = test system: Candida lipolytica PCM 2680-FY; format: cell-based
Protocol: as §1, §3

[13] = test system: Staphylococcus aureus ATCC 25923; format: cell-based
Protocol: as §1, §3

[14] = test system: Pseudomonas aeruginosa ATCC 9027; format: cell-based; remark: listed apart in the source
Protocol: as §1, §3

[15] = test system: Candida glabrata ATCC 15126; format: cell-based; remark: listed apart in the source
Protocol: as §1, §3

[16] = test system: Candida tropicalis PCM 2709-FY; format: cell-based
Protocol: as §1, §3

[17] = broth microdilution (CLSI), MHB, 5 × 10^5 CFU/mL, 37 °C, 18 h, visual, triplicate
[18] = broth microdilution (CLSI), RPMI-1640 with 2% D-glucose, 2 × 10^3 CFU/mL, 37 °C, 24 h, visual, triplicate
[19] = broth microdilution (CLSI), RPMI-1640 with 2% D-glucose, 2 × 10^3 CFU/mL, 37 °C, visual, triplicate
[20] = prevention of biofilm formation on polystyrene plates, 24 h at 37 °C, resazurin, triplicate

SMILES | MIC E. coli ([1]; ATCC 25922, 18 h) [µg/mL] | MIC S. epidermidis ([2]; ATCC 14990, 18 h) [µg/mL] | MIC C. albicans ([3]; ATCC 10231, 24 h) [µg/mL] | MIC C. lipolytica [4] [µg/mL] | MIC P. aeruginosa ([5]; ATCC 9027, 18 h) [µg/mL] | MIC C. glabrata ([6]; ATCC 15126, 24 h) [µg/mL] | MIC C. tropicalis ([7]; PCM 2709-FY) [µg/mL] | reduced retention time t’R [8] [min] | ∆tR [8] | MBIC E. coli ([9]; ATCC 25922, 24 h) [µg/mL] | MBIC S. epidermidis ([10]; ATCC 14990, 24 h) [µg/mL] | MBIC C. albicans ([11]; ATCC 10231, 24 h) [µg/mL] | MBIC C. lipolytica ([12]; 24 h) [µg/mL] | MBIC S. aureus ([13]; ATCC 25923, 24 h) [µg/mL] | MBIC P. aeruginosa ([14]; ATCC 9027, 24 h) [µg/mL] | MBIC C. glabrata ([15]; ATCC 15126, 24 h) [µg/mL] | MBIC C. tropicalis ([16]; PCM 2709-FY, 24 h) [µg/mL] | other results
CCCCCCCCCCCCCCCC(=O)N[C@H]1CSSC[C@@H](C(N)=O)NC(=O)[C@H](CCCCN)NC(=O)[C@H](CCCCN)NC(=O)[C@H](CCCCN)NC1=O [C1, C16-CKKKC-NH2] (Palmitoyl-CKKKC-NH2; disulfide 1-5) | 16 (≈ 19 µM) | 4 (≈ 4.74 µM) | 8 (≈ 9.48 µM) | 4 (≈ 4.74 µM) | 256 (≈ 303 µM) | 4 (≈ 4.74 µM) | 4 (≈ 4.74 µM) | 18.05 | +1.91 min | 64 | 16 | 32 | 16 | 16 | 128 | 32 | 32 | –
CCCCCCCCCCCCCCCC(=O)N[C@H]1CSSC[C@@H](C(N)=O)NC(=O)[C@H](CCCCN)NC(=O)[C@H](CCCCN)NC(=O)[C@H](CCCCN)NC(=O)[C@H](CCCCN)NC1=O [C2, C16-CKKKKC-NH2] (Palmitoyl-CKKKKC-NH2; disulfide 1-6) | – | – | – | – | – | – | – | 15.95 | +1.18 min | – | – | – | – | – | – | – | – | MIC E. coli [1, 17]: 64 µg/mL (≈ 65.8 µM); MIC S. epidermidis [2, 17]: 8 µg/mL (≈ 8.23 µM); MIC C. albicans [3, 18]: 4 µg/mL (≈ 4.11 µM); MIC C. lipolytica [4, 19]: 2 µg/mL (≈ 2.06 µM); MIC P. aeruginosa [5, 17]: 32 µg/mL (≈ 32.9 µM); MIC C. glabrata [6, 18]: 4 µg/mL (≈ 4.11 µM); MIC C. tropicalis [7, 19]: 2 µg/mL (≈ 2.06 µM); MBIC E. coli [9, 20]: 32 µg/mL; MBIC S. epidermidis [10, 20]: 4 µg/mL; MBIC C. albicans [11, 20]: 16 µg/mL; MBIC C. lipolytica [12, 20]: 8 µg/mL; MBIC S. aureus [13, 20]: 16 µg/mL; MBIC P. aeruginosa [14, 20]: 64 µg/mL; MBIC C. glabrata [15, 20]: 32 µg/mL; MBIC C. tropicalis [16, 20]: 8 µg/mL
CCCCCCCCCCCCCCCC(=O)N[C@H]1CSSC[C@@H](C(N)=O)NC(=O)[C@H](CCCCN)NC(=O)[C@H](CCCCN)NC(=O)[C@H](CCCCN)NC(=O)[C@H](CCCNC(=N)N)NC1=O [C3, C16-CRKKKC-NH2] (Palmitoyl-CRKKKC-NH2; disulfide 1-6) | 16 (≈ 16 µM) | 8 (≈ 8 µM) | 2 (≈ 2 µM) | 4 (≈ 4 µM) | – | 8 (≈ 8 µM) | 2 (≈ 2 µM) | 16.51 | +1.30 min | 64 | 8 | 8 | 2 | 16 | 64 | 8 | 4 | –
CCCCCCCCCCCCCCCC(=O)N[C@H]1CSSC[C@@H](C(N)=O)NC(=O)[C@H](CCCCN)NC(=O)[C@H](CCCCN)NC(=O)[C@H](CCCNC(=N)N)NC(=O)[C@H](CCCCN)NC1=O [C4, C16-CKRKKC-NH2] (Palmitoyl-CKRKKC-NH2; disulfide 1-6) | 32 (≈ 32 µM) | 8 (≈ 8 µM) | 2 (≈ 2 µM) | 1 (≈ 1 µM) | 256 (≈ 256 µM) | 4 (≈ 4 µM) | 2 (≈ 2 µM) | 16.10 | +0.92 min | 32 | 8 | 8 | 4 | 16 | 32 | 16 | 4 | –
